Experiment [1] relates to Troponin T. As to the kind of experiment: Troponin T plasma concentration (ECLIA) after MI. The format is in vivo, mouse. The settings on record: BNP vs saline. The procedure:
Troponin T plasma levels were quantified using an electrochemiluminescence immunoassay analyzer “ECLIA” (cobas e 801 immunoanalysis system, Roche Diagnostics, Rotkreuz, Switzerland) in the hematology laboratory of the Centre Hospitalier Universitaire Vaudois (CHUV). Blood was collected 24 h and 3 days after infarction induction in heparin microvette (Sarstedt, Nümbrecht, Germany).

The nature of experiment [2]: Infarct size by echocardiography. It counts as in vivo, mouse. To be noted: two weeks after surgery. The text has this:
To assess for the reproducibility of LAD occlusion, we measured the infarct size by echocardiography analysis (% of the MI length long axis). Two weeks after surgery, the infarct area represented 37 ± 2.5% of the LV in saline injected mice (n = 10) and 31.5 ± 4% in BNP-treated mice (n = 7).

Experiment [3] has as its system adult CMs. As to the kind of experiment: Adult CM culture 7 days with BNP. The format is cell-based, mouse. The settings on record: 10 nM BNP, 7 days of culture. The procedure:
(§1) CM isolations were performed thanks to the Langendorff-Free method. […] Thereafter, the heart was removed from the chest and the left ventricle was perfused with enzymatic solution containing collagenase II (120 U/mL), collagenase IV (120 U/mL) (Worthington, Biochemical Corporation, USA) and protease XIV (0.05 mg/mL or 0.175 U/mL) (Sigma-Aldrich, Merck, Darmstadt, Germany). In each experiment, a full digestion of the heart was obtained. After digestion, cardiac cells were dissociated by gentle pipetting, filtered and collected after 25 min sedimentation. For infarcted hearts, the tissue was separated into the three zones (ZI, BZ and RZ). The three different areas were weighted before gentle pipetting.
qRT-PCR were performed using the SYBR Premix Ex Taq polymerase (Takara Bio Inc., Shiga, Japan) with the ViiA^TM7 Instrument (Applied Biosystems, Waltham, MA, USA). Total RNA was isolated from heart tissue, CM cell cultures and isolated CMs using TRI-Reagent (Zymo Research, Orange County, CA, USA). cDNA was synthesized from RNA using PrimeScript RT reagent kit (Takara Bio Inc.). Polymerase chain reactions (PCR) were performed using the SYBR Premix Ex Taq polymerase (Takara Bio Inc.) with the ViiA^TM7 Instrument (Applied Biosystems). Results were obtained after 40 cycles of a thermal step protocol consisting of an initial denaturation of 95 °C (1 s), followed by 60 °C (20 s) of elongation (α-skeletal actin has an elongation time of 30 s at 60 °C). The sequences of primers were reported in Supplementary File S2. All results were normalized with the 18S housekeeping gene (Δ CT values). Means of ΔΔ CT (Δ CTBNP–Δ CTsaline) values (versus untreated cells or NaCl treated mice) were calculated and results were represented as 2^−ΔΔCT. Statistics were performed on ΔΔ CT individual values. SEM fold increase was calculated using 2^−ΔΔ CT high values − 2^−means of ΔΔCT [13].

Experiment [4] has as its system Akt. The experiment in a line: Western blot pAkt/Akt in adult CMs stimulated in vitro. To be noted: adult CMs stimulated with BNP for 2–3 h in vitro, vs untreated. The format is cell-based, mouse. The procedure: as §1
Total proteins were extracted from CMs isolated from adult infarcted and unmanipulated neonatal and adult hearts. Proteins were transferred to nitrocellulose membranes (Biorad) before incubation with primary antibodies overnight at 4 °C. Secondary antibodies were added 1 h at RT in the dark (Supplementary File S1). The signal was detected and quantified with the Odyssey infrared imaging system (LI-COR. Biosciences, Bad Homburg, Germany). All results were normalized to the tubulin protein level or to the total protein level thanks to stainings with the Revert 700 Total protein Stain (LI-COR).

Experiment [5] has as its system cGMP. To be noted: BNP-treated infarcted mice, cited from earlier work. The procedure: In previous work, we followed the BNP kinetic by measuring the cGMP level in the hearts and plasma of BNP-treated infarcted mice. 30 min after BNP injections, the cGMP level is increased in the hearts of treated mice and returns to normal 1 h after injection. In the circulation of treated mice, cGMP level is increased from 1 h to 24 h after ...

Experiment [6] relates to neonatal CMs. As to the kind of experiment: Neonatal cardiomyocyte culture treated with BNP. It counts as cell-based, mouse. The procedure:
Neonatal (1–2 days) C57BL/6 pups were sacrificed and CMs were isolated by enzymatic digestion according to the method previously described. Briefly, the chest was opened and the heart removed. After separation of the atria from the rest of the heart, the ventricles were minced and digested with 0.45 mg/mL collagenase (Worthington, Biochemical Corporation, Lakewood, NJ, USA) and 1 mg/mL pancreatin (Sigma). After 3 rounds of digestion, cells were plated 2 times for 45 min in order to separate CMs (non-adherent cells) from the non-myocyte cells (NMCs). Thereafter, CMs were plated on gelatine (0.1%) coated plates and cultured in 3:1 mixture of DMEM and Medium 199 (Invitrogen Corp, San Diego, CA, USA) supplemented with 10% horse serum (Oxoid), 5% fetal bovine serum (Invitrogen), 10 mM Hepes, 100 U/mL penicillin G. To homogenize the experiment, 70,000 CMs were plated per well.
Immediately after plating, neonatal CMs were treated or not with BNP for 14 days. To inhibit NMC proliferation and to work on 95% pure CMs, cells were exposed the first 7 days of culture to cytosine-β-D-arabinofuranoside (AraC, 1 mg/mL). After 7 days of culture, AraC was removed until 14 days of culture. CMs were cultured in a hypoxia chamber (Stem Cell Technologies) flushed with 3% O2/5% CO2/92% N2 (Carbagas). Indeed, we previously observed that low oxygen concentration stimulates CM dedifferentiation and proliferation. Medium was replaced 1–2 times/week.
CMs were treated with 3 different concentrations of BNP: 10 nM, 100 nM and 1000 nM and compared to untreated cells. Quantitative RT-qPCR, Western blot analysis as well as immunohistochemistry studies were performed after 14 days of culture.

Setting [7] is: neonatal CMs in vitro, BNP vs untreated.
Setting [8] is: neonatal CMs in vitro, BNP vs untreated, 14 days.

No end group written: not given here.

For “Brain Natriuretic Peptide (SQGSTLRVQQRPQNSKVTHISSCFGHKIDRIGSVSRLGCNALKLL; not fully specified; ends and bridges not checked; UniProt P40753 77-121, looked up) [BNP, synthetic mouse BNP (1–45) peptide (Bachem, catalog number H-7558)]”, in experiment [1] (1 day after MI), the “Troponin T plasma concentration decrease” value is 2.6 ×. In addition, in experiment [1] (3 days after MI), the “Troponin T plasma concentration decrease” value is reported as 2.1 ×. In addition, in experiment [2] (BNP vs saline), the “reduction of infarct size” value came to 15%. Besides, in experiment [2] (BNP-treated n = 7, saline 37 ± 2.5% (n = 10)), the “infarct area as % of the LV (% of the MI length long axis)” value was found to be 31.5 ± 4%. In addition, the “Aurkb+ Troponin I+ CMs in culture” value in experiment [3] is “detected only in BNP-treated cell cultures”. In addition, in experiment [3] (vs untreated), the “anf mRNA increase” value is listed as 70%, the “cyclin E1 mRNA increase” value was found to be 56%, the “dab2 mRNA increase” value is listed as 52% and the “runx1 mRNA increase” value is recorded as 62%. The pAkt/Akt ratio increase in experiment [4] is reported as 2.5 ×. Also, the “cGMP level in the hearts” value in experiment [5] (30 min after injection, returns to normal 1 h after injection) is listed as “increased”. In experiment [5] (from 1 h to 24 h after injections), the “cGMP level in the circulation” value is “increased”. Moreover, the “increase of number of CMs in culture” value in experiment [6] (10 nM BNP, 14 days, 3% O2, vs untreated) is on record as 18%. In addition, the “number of small and mononucleated CMs” value in experiment [6] (BNP-treated neonatal CM cultures vs untreated) is given as “higher number”. For the same substance, in experiment [6] (setting [7]), the “cyclin A2 mRNA increase” value amounted to 40%, the “cyclin B2 mRNA increase” value came out at 30% and the “cyclin D1 mRNA increase” value stood at 50%. Moreover, in experiment [6] (setting [8]), the “increase of percentage of CMs expressing Aurkb” value came out at 50% and the “increase of percentage of CMs expressing Ki67” value was determined as 23%.

Values taken from publication PMC9818267, “Brain Natriuretic Peptide Protects Cardiomyocytes from Apoptosis and Stimulates Their Cell Cycle Re-Entry in Mouse Infarcted Hearts” (Cells, 2022).
